Common to all, as to format: functional
Details in all cases: CF-1, ip

Experiment [1] deals with Mus musculus. Put plainly: Anticonvulsant activity in ip dosed albino CF-1 mouse assessed as inhibition of nicotine-induced seizures.
Experiment [2] deals with Mus musculus. Put plainly: Anxiolytic activity in ip dosed albino CF-1 mouse under hypoxic stress.
Experiment [3] has as its system Mus musculus. The experiment can be described thus: Anticonvulsant activity in ip dosed albino CF-1 mouse assessed as inhibition of thiosemicarbazide-induced seizures.
Experiment [4] concerns Mus musculus. Put plainly: Anticonvulsant activity in ip dosed albino CF-1 mouse assessed as inhibition of pentylenetetrazole-induced seizures.
Experiment [5] has as its system Mus musculus. Put plainly: Effect on motor activity in ip dosed albino CF-1 mouse by pedestal test.
In experiment [6] the test system is Mus musculus. Put plainly: Effect on motor activity in ip dosed albino CF-1 mouse by traction test.
For experiment [7], the system named is Mus musculus. The experiment can be described thus: Effect on motor activity in ip dosed albino CF-1 mouse by chimney test.
Experiment [8] deals with Mus musculus. The experiment can be described thus: Anticonvulsant activity in ip dosed albino CF-1 mouse assessed as inhibition of maximal electric shock-induced seizures.
The test system of experiment [9] is Mus musculus. Put plainly: Effect on motor activity in ip dosed albino CF-1 mouse by dish test.
Experiment [10] relates to Mus musculus. Put plainly: Antidepressant activity in ip dosed albino CF-1 mouse assessed as inhibition of ethanol-induced response.
Experiment [11] deals with Mus musculus. Put plainly: Anticonvulsant activity in ip dosed albino CF-1 mouse assessed as inhibition of strychnine-induced seizures.

This note sets out measurements from ChEMBL document CHEMBL3244316, “Pharmacology of some metabolites of triazolam, alprazolam, and diazepam prepared by a simple, one-step oxidation of benzodiazepines” (1978).

Molecules are shown by their SMILES. Some results are limits rather than exact numbers.

`OCc1nnc2n1-c1ccc(Cl)cc1C(c1ccccc1Cl)=NC2`: the ED50 (commonly the dose at which the effect has come halfway, by size or by number of responders) was 0.01 mg/kg with Mus musculus [1]; 0.5 mg/kg in the experiment on Mus musculus [2]; 0.014 mg/kg with Mus musculus [3]; 0.018 mg/kg in the experiment on Mus musculus [4]; 0.17 mg/kg with Mus musculus [5]; 0.6 mg/kg in the experiment with Mus musculus [6]. Further, the ED50 in the experiment on Mus musculus [7] was 0.14 mg/kg; in the experiment on Mus musculus [8], 89 mg/kg; in the experiment on Mus musculus [9], 0.03 mg/kg; with Mus musculus [10], 0.4 mg/kg; with Mus musculus [11], 0.5 mg/kg.
Take `CN1C(=O)CN=C(c2ccccc2)c2cc(Cl)ccc21` [DIAZEPAM]: the ED50 in the experiment with Mus musculus [1] stood at 0.1 mg/kg; in the experiment with Mus musculus [2], 0.2 mg/kg; with Mus musculus [3] it was 0.4 mg/kg; in the experiment on Mus musculus [4], 0.8 mg/kg; in the experiment on Mus musculus [5], 0.7 mg/kg; with Mus musculus [6] it was 4 mg/kg. Further, the ED50 in the experiment on Mus musculus [7] was found to be 1.2 mg/kg; with Mus musculus [8], 25 mg/kg; with Mus musculus [9] it was 0.25 mg/kg; in the experiment on Mus musculus [10], 1 mg/kg; with Mus musculus [11], 4 mg/kg.
For `Cc1nnc2n1-c1ccc(Cl)cc1C(c1ccccc1)=NC2O` (stereo not given) [4-HYDROXY-ALPRAZOLAM], the ED50 in the experiment on Mus musculus [1] worked out at 4 mg/kg; in the experiment with Mus musculus [2], 6.2 mg/kg; with Mus musculus [3], 5 mg/kg; with Mus musculus [4], 0.7 mg/kg; with Mus musculus [5], 20 mg/kg; in the experiment with Mus musculus [6], 23 mg/kg. In addition, the ED50 with Mus musculus [7] was 6.3 mg/kg; with Mus musculus [8] it was above 50 mg/kg; in the experiment with Mus musculus [9], 6.3 mg/kg; with Mus musculus [10] it was 10 mg/kg; in the experiment with Mus musculus [11], 25 mg/kg.
As to `CN(C)Cc1nnc2n1-c1ccc(Cl)cc1C(c1ccccc1)=NC2` [ADINAZOLAM], the median effective dose (ED50) was determined as 0.2 mg/kg in the experiment with Mus musculus [1]; 1.9 mg/kg in the experiment on Mus musculus [2]; 0.15 mg/kg in the experiment with Mus musculus [3]; 0.8 mg/kg with Mus musculus [4]; 2.8 mg/kg in the experiment on Mus musculus [5]; 5.6 mg/kg with Mus musculus [6]. The median effective dose (ED50) with Mus musculus [7] is 3.6 mg/kg; in the experiment on Mus musculus [8], 100 mg/kg; with Mus musculus [9], 1.5 mg/kg; with Mus musculus [10] it was 2.2 mg/kg; with Mus musculus [11], above 200 mg/kg.
As for `Cc1nnc2n1-c1ccc(Cl)cc1C(c1ccccc1Cl)=NC2` [TRIAZOLAM], the ED50 turned out to be 0.004 mg/kg with Mus musculus [1]; 0.035 mg/kg in the experiment with Mus musculus [2]; 0.02 mg/kg in the experiment on Mus musculus [3]; 0.009 mg/kg with Mus musculus [4]; 0.03 mg/kg in the experiment on Mus musculus [5]; 0.3 mg/kg with Mus musculus [6]. The ED50 in the experiment on Mus musculus [7] came out at 0.08 mg/kg; in the experiment with Mus musculus [8], 30 mg/kg; in the experiment with Mus musculus [9], 0.03 mg/kg; with Mus musculus [10], 0.7 mg/kg; in the experiment on Mus musculus [11] it was 0.22 mg/kg.
As to `O=C1Nc2ccc(Cl)cc2C(c2ccccc2)=NC1O` (stereo not given) [OXAZEPAM], the ED50 came to 0.14 mg/kg in the experiment with Mus musculus [1]; 12.5 mg/kg in the experiment on Mus musculus [2]; 0.9 mg/kg with Mus musculus [3]; 0.7 mg/kg in the experiment on Mus musculus [4]; 2 mg/kg with Mus musculus [5]; 13 mg/kg with Mus musculus [6]. Besides, the median effective dose (ED50) in the experiment with Mus musculus [7] was 1.8 mg/kg; in the experiment with Mus musculus [8] it was 79 mg/kg; with Mus musculus [9], 1.1 mg/kg; with Mus musculus [10], 1.8 mg/kg; in the experiment on Mus musculus [11], 9 mg/kg.
For the molecule `Cc1nnc2n1-c1ccc(Cl)cc1C(c1ccccc1)=NC2` [ALPRAZOLAM], the median effective dose (ED50) in the experiment with Mus musculus [1] stood at 0.02 mg/kg; in the experiment on Mus musculus [2], 0.02 mg/kg; in the experiment with Mus musculus [3], 0.16 mg/kg; with Mus musculus [4], 0.13 mg/kg; with Mus musculus [5], 0.23 mg/kg; with Mus musculus [6] it was 0.6 mg/kg. In addition, the median effective dose (ED50) in the experiment on Mus musculus [7] came to 0.09 mg/kg; with Mus musculus [8], 25 mg/kg; in the experiment with Mus musculus [9] it was 0.15 mg/kg; in the experiment with Mus musculus [10] it was 0.18 mg/kg; in the experiment on Mus musculus [11], 0.3 mg/kg.
As to `OCc1nnc2n1-c1ccc(Cl)cc1C(c1ccccc1)=NC2O` (stereo not given), the ED50 was 6.2 mg/kg with Mus musculus [1]; above 50 mg/kg in the experiment with Mus musculus [2]; 8.9 mg/kg in the experiment on Mus musculus [3]; 40 mg/kg in the experiment on Mus musculus [4]; above 80 mg/kg in the experiment on Mus musculus [5]; above 100 mg/kg with Mus musculus [6]. The ED50 was above 80 mg/kg with Mus musculus [7]; above 100 mg/kg in the experiment with Mus musculus [8]; 56 mg/kg with Mus musculus [9]; above 80 mg/kg in the experiment on Mus musculus [10]; above 80 mg/kg in the experiment on Mus musculus [11].
As to `CN1C(=O)C(O)N=C(c2ccccc2)c2cc(Cl)ccc21` (stereo not given) [TEMAZEPAM], the ED50 in the experiment with Mus musculus [1] was 0.063 mg/kg; in the experiment on Mus musculus [2], 0.2 mg/kg; in the experiment with Mus musculus [3], 0.3 mg/kg; with Mus musculus [4], 0.3 mg/kg; with Mus musculus [5], 0.7 mg/kg; with Mus musculus [6], 4 mg/kg. The median effective dose (ED50) in the experiment with Mus musculus [7] was found to be 0.45 mg/kg; with Mus musculus [8] it was 10 mg/kg; with Mus musculus [9] it was 0.36 mg/kg; in the experiment with Mus musculus [10] it was 0.32 mg/kg; in the experiment with Mus musculus [11] it was 2.8 mg/kg.
`O=C1CN=C(c2ccccc2)c2cc(Cl)ccc2N1` [NORDAZEPAM]: the ED50 was found to be 0.3 mg/kg in the experiment with Mus musculus [1]; 0.7 mg/kg in the experiment with Mus musculus [2]; 1.8 mg/kg with Mus musculus [3]; 1.6 mg/kg with Mus musculus [4]; 0.9 mg/kg in the experiment with Mus musculus [5]; 7 mg/kg in the experiment with Mus musculus [6]. For the same molecule, the ED50 is 0.7 mg/kg with Mus musculus [7]; above 100 mg/kg in the experiment with Mus musculus [8]; 0.5 mg/kg with Mus musculus [9]; 1.8 mg/kg in the experiment on Mus musculus [10]; 20 mg/kg in the experiment with Mus musculus [11].
With `OC1N=C(c2ccccc2)c2cc(Cl)ccc2-n2ccnc21` (stereo not given), the ED50 was 4 mg/kg in the experiment with Mus musculus [1]; 60 mg/kg with Mus musculus [2]; 6.3 mg/kg in the experiment with Mus musculus [3]; 6.3 mg/kg in the experiment with Mus musculus [4]; 7 mg/kg in the experiment with Mus musculus [5]; 32 mg/kg in the experiment on Mus musculus [6]. The 50% effective dose (ED50) in the experiment with Mus musculus [7] was above 25 mg/kg; with Mus musculus [8] it was 63 mg/kg; in the experiment on Mus musculus [9], 6 mg/kg; in the experiment with Mus musculus [10] it was 7.9 mg/kg; with Mus musculus [11] it was above 80 mg/kg.
In the case of `OCc1nnc2n1-c1ccc(Cl)cc1C(c1ccccc1)=NC2`, the ED50 amounted to 0.08 mg/kg in the experiment with Mus musculus [1]; 0.02 mg/kg with Mus musculus [2]; 0.08 mg/kg in the experiment with Mus musculus [3]; 0.22 mg/kg in the experiment with Mus musculus [4]; 8 mg/kg in the experiment with Mus musculus [6]; 0.63 mg/kg in the experiment on Mus musculus [7]. In addition, the ED50 in the experiment with Mus musculus [8] was 50 mg/kg; with Mus musculus [9], 2 mg/kg; with Mus musculus [10], 1.8 mg/kg; with Mus musculus [11], 9.9 mg/kg.
With `Cc1nnc2n1-c1ccc(Cl)cc1C(c1ccccc1Cl)=NC2O` (stereo not given), the 50% effective dose (ED50) with Mus musculus [1] is 10 mg/kg; with Mus musculus [2] it was above 100 mg/kg; with Mus musculus [3] it was 11.2 mg/kg; in the experiment on Mus musculus [4] it was 14 mg/kg; in the experiment with Mus musculus [5] it was 11 mg/kg; with Mus musculus [6], above 100 mg/kg. Further, the median effective dose (ED50) is 45 mg/kg with Mus musculus [7]; above 100 mg/kg in the experiment with Mus musculus [8]; 8 mg/kg with Mus musculus [9]; above 80 mg/kg with Mus musculus [10]; above 80 mg/kg in the experiment with Mus musculus [11].
On to `OCc1nnc2n1-c1ccc(Cl)cc1C(c1ccccc1Cl)=NC2O` (stereo not given), for which the 50% effective dose (ED50) is 1 mg/kg in the experiment on Mus musculus [1]; 30 mg/kg in the experiment with Mus musculus [2]; 0.39 mg/kg in the experiment on Mus musculus [3]; 32 mg/kg in the experiment with Mus musculus [4]; 44 mg/kg with Mus musculus [5]; above 100 mg/kg with Mus musculus [6]. Besides, the ED50 in the experiment with Mus musculus [7] was 2.2 mg/kg; in the experiment on Mus musculus [8], above 100 mg/kg; with Mus musculus [9] it was 5 mg/kg; with Mus musculus [10], 50 mg/kg; in the experiment on Mus musculus [11], above 80 mg/kg.
Turning to `CN(C)Cc1nnc2n1-c1ccc(Cl)cc1C(c1ccccc1)=NC2O` (stereo not given), the median effective dose (ED50) with Mus musculus [1] was found to be 2.2 mg/kg; in the experiment with Mus musculus [2], 25 mg/kg; with Mus musculus [3], 0.88 mg/kg; in the experiment with Mus musculus [4], 4 mg/kg; with Mus musculus [5], 22 mg/kg; in the experiment with Mus musculus [6] it was 22 mg/kg. The 50% effective dose (ED50) was 4 mg/kg with Mus musculus [7]; above 100 mg/kg in the experiment with Mus musculus [8]; 5 mg/kg in the experiment on Mus musculus [9]; above 20 mg/kg in the experiment on Mus musculus [10]; above 40 mg/kg in the experiment with Mus musculus [11].
Regarding `Clc1ccc2c(c1)C(c1ccccc1)=NCc1nccn1-2`, the ED50 came to 1 mg/kg in the experiment with Mus musculus [1]; 25 mg/kg in the experiment with Mus musculus [2]; 1.6 mg/kg in the experiment with Mus musculus [3]; 2.2 mg/kg in the experiment with Mus musculus [4]; 4 mg/kg in the experiment with Mus musculus [5]; 16 mg/kg in the experiment with Mus musculus [6]. Moreover, the ED50 in the experiment on Mus musculus [7] was 3.6 mg/kg; in the experiment with Mus musculus [8], 32 mg/kg; with Mus musculus [9], 5 mg/kg; in the experiment with Mus musculus [10], 3.6 mg/kg; in the experiment with Mus musculus [11], 7 mg/kg.
